Measured values published in patent publication US8426677B2, “Method of controlling plant growth and architecture by controlling expression of gibberellin 2-oxidase” (Academia Sinica, priority 2008, dated 2013).

B1: GA2ox5: rice class C20 gibberellin 2-oxidase (SEQ ID NO:2), expressed in E. coli and partially purified (protein, listed as Oryza sativa)
chain: MEEHDYDSNSNPPLMSTYKHLFVEQHRLDMDMGAIDVDECELPVIDLAGLMEAEQVCRADMVRAASEWGFFQVTNHGVPQALLRELHDAQVAVFRRPFQEKVTERLLGFSPESYRWGTPTAKCLEQLSWSEAYHIPMTTPRPSTSIRARAVIEEVSRAMYELAQKLAEILMRGLPGAGEGETMVTTREETCFLRLNRYPPCAMAMGGFGLCPHTDSDLLTIVHQQQDTVGGLQLLKGGRWVAVKPSPSTLIVNVGDLLQAWSNDVYKSVEHRVMANATLERFSMAFFLCPSYHTLIIPSSSHVHDDDAHYRSFTFGEYRKQIMEDVRSTGRKIGLHRFRTR
B2: GA2ox6: rice class C20 gibberellin 2-oxidase (SEQ ID NO:4), expressed in E. coli and partially purified (protein, listed as Oryza sativa)
chain: MPAFADIAIDPPLADSYRALALLRRDRDGGIAPPAVQMVGSGGAVLERDLPMVDLERLTRGGAGERKACAGAMARAASEWGFFQLTNHGVGRELMEEMRREQARLFRLPFETKEKAGLLNGSYRWGNPTATSLRHLSWSEAFHVPLASISGADCDFGDLTSLRGVMQEVAEAMSRVANTVAAALAEELTGRGGGGASAAPWFPAGCDETTCFLRLNRYPACPFAADTFGLVPHTDSDFLTVLCQDQVGGLHLMKDSRWVAVRPRPDALVVNIGDLFQAWSNNRYKSVEHKVVANAKTDRLSVAYFLCPSYDSLVGTCGEPSPYRAFTFGEYRKKVQEDVRTTGKKIGLPNFFKHSSVQ

Legend:
[1] = test system: GA2ox6ACT mutant and wild type rice seeds/seedlings; experiment: Germination and seedling growth of rice on MS agar medium with or without GA3; assay type: in vivo, Oryza sativa
Procedure: To determine whether the dwarfism of rice mutants overexpressing GA2ox was a result of a reduction of bio-active GAs, GA2ox6ACT mutant seeds were germinated on MS agar medium with or without supplementation with 5 μM GA3.
The rice cultivar Oryza sativa L. cv Tainung 67 was used as in this study. Four T-DNA tagged rice GA2ox mutant lines were obtained from the Taiwan Rice Insertional Mutagenesis database (TRIM database, http://trim.sinica.edu.tw/). T1 mutant seeds were surface sterilized in 2.5% NaClO for 18 minutes, washed well with sterile water, placed on MS agar medium (Murashige and Skoog Basal Medium, Sigma), and incubated at 28° C. with continuous light for 15˜20 days. Wild type rice was grown under the same conditions. Plants were transplanted to pot soil and grown in a net-house during the growing season.

[2] = test system: Ubi::GA2ox6 transgenic rice and wild type; experiment: GA3 treatment of wild type and Ubi::GA2ox6 transgenic rice grown in pot soil (plant height); assay type: in vivo, Oryza sativa; conditions: 10 μM GA3 at a 12-day interval for 5 weeks
[3] = test system: GA2ox6ACT mutant seedlings; experiment: Tiller and adventitious root development of seedlings grown in media with or without GA3; assay type: in vivo, Oryza sativa; conditions: 5 μM GA3 in medium
Text: (§1) Additionally, the inhibition of tillering by GA3 was independent of rice growth stage (see FIG. 15B). […] Both GA-treated GA2ox6ACT mutant and wild-type plants produced 2-3 times fewer tillers than mutant and wild-type plants without GA treatment (FIG. 15B).

[4] = test system: wild type and GA2ox6ACT plants; experiment: Tiller number of 1-month-old plants in pot soil sprayed with GA3; assay type: in vivo, Oryza sativa; conditions: 10 μM GA3 spray once every 7 days, 3 sprays, GA2ox6ACT mutant and wild type
Text: as §1

OSH1 mRNA = experiment: RT-PCR of OSH1 mRNA in embryos containing tiller buds; assay type: in vivo, Oryza sativa; conditions: 12 DAI
Procedure: (§2) To determine whether GA deficiency induced expression of OSH1 and TB1 that in turn promotes tillering and root development, GA2ox5Δ335-341ACT, GA2ox6ACT and wild type seedlings were grown in media with or without 5 μM GA3 after germination. Rice embryos containing tiller buds were collected at 12 DAI. […] It is not clear why the accumulation of OSH1 and TB1 mRNAs in the wild type was enhanced by GA3 (FIG. 14A), nevertheless, its stem became slenderer and adventitious root growth was inhibited similar as mutants (FIG. 14B).
(§3) Total RNA was purified from rice tissues using a Trizol reagent (Invitrogen). Total RNA (15 μg aliquots) was treated with 1 unit of RNase-free DNase I (Promega) in a 20 μL volume and incubated at 37° C. for 30 min. The RNA sample was then incubated at 65° C. for 10 min and placed on ice. cDNA synthesis was performed in a 20 μL mixture containing 1× reverse transcription reaction buffer (Invitrogen), 4.5 μg of purified RNA, 400 ng oligo (dT)16 primer, 5 mM DTT, 0.5 mM each dNTP, 40 units RNasin (Promega), and 200 units Superscript® III reverse transcriptase (Invitrogen). The reaction was carried out at room temperature (25° C.) for 10 min, transferred to 50° C. for 1 h, and terminated by heating at 72° C. for 15 min. The sample, which served as a cDNA stock for PCR analysis, was then stored at −70° C. […]

TB1 mRNA = experiment: RT-PCR of TB1 mRNA in embryos containing tiller buds; assay type: in vivo, Oryza sativa; conditions: 12 DAI
Procedure: as §2, §3

GA2ox6 mRNA = experiment: RT-PCR of GA2ox6 mRNA in leaves and roots of seedlings; assay type: in vivo, Oryza sativa; conditions: GA3 treatment, wild type and GA2ox6ACT mutant seedlings at 18 DAI
Procedure: Total RNA was purified from rice tissues using a Trizol reagent (Invitrogen). Total RNA (15 μg aliquots) was treated with 1 unit of RNase-free DNase I (Promega) in a 20 μL volume and incubated at 37° C. for 30 min. The RNA sample was then incubated at 65° C. for 10 min and placed on ice. cDNA synthesis was performed in a 20 μL mixture containing 1× reverse transcription reaction buffer (Invitrogen), 4.5 μg of purified RNA, 400 ng oligo (dT)16 primer, 5 mM DTT, 0.5 mM each dNTP, 40 units RNasin (Promega), and 200 units Superscript® III reverse transcriptase (Invitrogen). The reaction was carried out at room temperature (25° C.) for 10 min, transferred to 50° C. for 1 h, and terminated by heating at 72° C. for 15 min. The sample, which served as a cDNA stock for PCR analysis, was then stored at −70° C.
RT-PCR analysis was carried out in a 15 μl, solution containing 0.9 μL cDNA, 1×PCR buffer (Promega), 1.5 mM MgCl2, 0.2 mM each dNTP, 0.3 μmole each primer, 3% DMSO, and 0.6 units of Taq DNA polymerase (Promega). For GA2ox2, GA2ox7, and GA2ox8 that had very low mRNA abundance, RT-PCR analysis was carried out using KOD Hot Start DNA Polymerase (Novagen). Each 15 μL of reaction solution contained 0.9 μL cDNA, 1×PCR buffer (Novagen), 1.0 mM MgSO4, 0.2 mM each dNTP, 0.3 μmole each primer, 3% DMSO, and 1 unit of KOD Hot Start DNA Polymerase (Novagen). […]

[5] = In vitro enzyme activity of recombinant GST fusion GA2ox5 and GA2ox6 expressed in E. coli; assay type: biochemical, Oryza sativa; conditions: partially purified glutathione S-transferase fusion protein
Text: GA53, a precursor of GA1, could be converted to GA97 in vitro by the Arabidopsis class C20 GA2ox through 2β-hydroxylation (Schomburg et al., 2003). The in vitro activity of rice GA2ox5 and GA2ox6 were also investigated by overexpression as fusion proteins with glutathione S-transferase in E. coli. Fusion proteins were partially purified and their enzyme activity analyzed.
Full length cDNAs of GA2ox5 and GA2ox6 in the pGEM®-T Easy cloning vector were digested with BamHI and subcloned into the same site in pGEX-5X expression vector (Amersham Biosciences). The resulting expression vectors were used to transform E. coli strain BL21-CodonPlus® (DE3) RIPL (Stratagen). A volume of 5 mL transformants pre-cultured overnight in Luria-Bertani broth (LB broth, DIFCO) was transferred to 500 mL of LB broth with 100 mgL^−1 ampicillin and incubated at 37° C. until cell density reached an OD600 around 0.6˜0.8. Isopropyl-β-D-thiogalactopyranoside (IPTG) was added to the bacteria culture to a final concentration of 0.3 mM and incubated at 28° C. for another 3 hours. Bacteria were pelleted by centrifuge and harvested, resuspended in BugBuster® Protein Extraction Reagent (Novagen) at room temperature for 10˜20 minutes, and centrifuged at […] for 30 min. The supernatant protein extracts were partially purified through GST-Bind resin (Novagen), and the purified protein extracts were stored at −80° C. […]

[6] = 5 μM GA3, GA2ox5Δ335-341ACT and GA2ox6ACT mutants

Molecule | Root lengths of wild type and GA2ox6ACT mutant seedlings ([1]; 5 μM GA3, 18 DAI) | Height of dwarf GA2ox6ACT mutant seedlings, recovery relative to the wild type ([1]; 5 μM GA3, GA2ox6ACT mutant, 18-day-old seedlings) | Plant height of 18-day-old wild-type seedlings ([1]; 5 μM GA3, wild type, 18 DAI) | Germination of GA2ox6ACT seeds ([1]; 5 μM GA3 in MS agar medium) | Final height of Ubi::GA2ox6 transgenic plants relative to the wild type [2] | Height of wild type plant ([2]; wild type) | Root system compared to the mutant without GA treatment ([3]; GA2ox6ACT mutant) | Time at which the first tiller developed ([3]; GA2ox6ACT mutant (9 DAI without GA treatment)) | Tillers produced compared to plants without GA treatment [4] | OSH1 mRNA level in mutants (OSH1 mRNA; [6]) | OSH1 mRNA accumulation in the wild type (OSH1 mRNA; 5 μM GA3, wild type) | TB1 mRNA level in mutants (TB1 mRNA; [6]) | TB1 mRNA accumulation in the wild type (TB1 mRNA; 5 μM GA3, wild type) | GA2ox6 mRNA accumulation in leaves and roots (GA2ox6 mRNA) | Conversion of GA53 to GA97 (2β-hydroxylation) [5]
C=C1C[C@]23C[C@@]1(O)CC[C@H]2[C@@]12C=C[C@H](O)[C@@](C)(C(=O)O1)[C@H]2[C@@H]3C(=O)O [GA3] | effectively enhanced | up to 84 % of the wild type | only slightly enhanced | promoted germination | 63 % of the WT | not altered | significantly reduced | 16 DAI | 2-3 times fewer | significantly reduced | enhanced | significantly reduced | enhanced | unaffected | 
B1 |  |  |  |  |  |  |  |  |  |  |  |  |  |  | could convert GA53 to GA97
B2 |  |  |  |  |  |  |  |  |  |  |  |  |  |  | could convert GA53 to GA97
